Experimental data as given in publication PMC4965013, “Open Source Drug Discovery with the Malaria Box Compound Collection for Neglected Diseases and Beyond” (PLoS Pathogens, 2016).

Experiments:
[1] = test system: P. falciparum 3D7 trophozoites; assay: Metabolomic fingerprint profiling LC-MS; type: cell-based, Plasmodium falciparum; set-up: UDP-D-glucose / ADP-D-glucose: unit not given here
P. falciparum = assay: EC50 listed in S2 Table Metabolomics (used to set the concentration tested); type: cell-based; settings: Plasmodium falciparum; EC50 used for Factor_XEC50 in metabolomics; read-out: EC50_nM
[2] = metabolite level change after treatment

Q: What does the source list for `COc1ccccc1CNC(=O)CCn1c(=O)[nH]c2ccsc2c1=O` [MMV019066]?
A: Acetyllysine ([1]; S2 Table Metabolomics, metabolite Acetyllysine): 0.07735; N-acetyl-L-ornithine ([1]; S2 Table Metabolomics, metabolite N-acetyl-L-ornithine): -0.0529; N-carbamoyl-L-aspartate ([1]; S2 Table Metabolomics, metabolite N-carbamoyl-L-aspartate): 0.05336; NADPH ([1]; S2 Table Metabolomics, metabolite NADPH): -0.3877; dAMP ([1]; S2 Table Metabolomics, metabolite dAMP): -0.3418; dCMP ([1]; S2 Table Metabolomics, metabolite dCMP): -0.4851; dTDP ([1]; S2 Table Metabolomics, metabolite dTDP): 0.1634; dTMP ([1]; S2 Table Metabolomics, metabolite dTMP): 0.1236; dTTP ([1]; S2 Table Metabolomics, metabolite dTTP): -0.2106; dihydroorotate ([1]; S2 Table Metabolomics, metabolite dihydroorotate): 0.243; orotate ([1]; S2 Table Metabolomics, metabolite orotate): -0.2; DLH ([1]; S2 Table Metabolomics, peptide DLH): -0.2144; DLS/SDL/SID ([1]; S2 Table Metabolomics, peptide DLS/SDL/SID): -0.3411; PD ([1]; S2 Table Metabolomics, peptide PD): 0.09576; PEE ([1]; S2 Table Metabolomics, peptide PEE): 0.0022; PVNF ([1]; S2 Table Metabolomics, peptide PVNF): -0.1895; 3-phosphoglycerate ([1]; metabolite 3-phosphoglycerate, S2 Table Metabolomics): -0.09413; ADP-D-glucose ([1]; metabolite ADP-D-glucose, S2 Table Metabolomics): -0.05903; ATP ([1]; metabolite ATP, S2 Table Metabolomics): -0.2412; CDP ([1]; metabolite CDP, S2 Table Metabolomics, change in metabolite level after compound treatment): 0.1136; D-sedoheptulose-1/7-phosphate ([1]; metabolite D-sedoheptulose-1/7-phosphate, S2 Table Metabolomics, change in metabolite level after compound treatment): 0.1088; FAD ([1]; metabolite FAD, S2 Table Metabolomics): 0.05372; GMP ([1]; metabolite GMP, S2 Table Metabolomics, change in metabolite level after compound treatment): 0.1058; NAD+ ([1]; metabolite NAD+, S2 Table Metabolomics): 0.8616; NADP+ ([1]; metabolite NADP+, S2 Table Metabolomics): -0.0134; Octoluse Bisphosphate ([1]; metabolite Octoluse Bisphosphate, S2 Table Metabolomics, change in metabolite level after compound treatment): -0.2214; Pyroglutamic acid ([1]; metabolite Pyroglutamic acid, S2 Table Metabolomics): -0.1934; UDP-D-glucose ([1]; metabolite UDP-D-glucose, S2 Table Metabolomics): 0.05907; UDP-D-glucuronate ([1]; metabolite UDP-D-glucuronate, S2 Table Metabolomics): -0.137; UDP-N-acetyl-glucosamine ([1]; metabolite UDP-N-acetyl-glucosamine, S2 Table Metabolomics): 0.07368; UDP ([1]; metabolite UDP, S2 Table Metabolomics, change in metabolite level after compound treatment): 0.06631; UMP ([1]; metabolite UMP, S2 Table Metabolomics, change in metabolite level after compound treatment): 0.4511; UTP ([1]; metabolite UTP, S2 Table Metabolomics, change in metabolite level after compound treatment): -0.2134; a-ketoglutarate ([1]; metabolite a-ketoglutarate, S2 Table Metabolomics): -0.0676; citrate/isocitrate ([1]; metabolite citrate/isocitrate, S2 Table Metabolomics, change in metabolite level after compound treatment): -0.2257; cytidine ([1]; metabolite cytidine, S2 Table Metabolomics): 0.1038; dATP ([1]; metabolite dATP, S2 Table Metabolomics): -0.07834; dGMP/AMP ([1]; metabolite dGMP/AMP, S2 Table Metabolomics, change in metabolite level after compound treatment): 0.0855; fumarate ([1]; metabolite fumarate, S2 Table Metabolomics, change in metabolite level after compound treatment): 1.364; glucose-1/6-phosphate ([1]; metabolite glucose-1/6-phosphate, S2 Table Metabolomics, change in metabolite level after compound treatment): 0.5644; glycerate ([1]; metabolite glycerate, S2 Table Metabolomics, change in metabolite level after compound treatment): -0.201; guanine ([1]; metabolite guanine, S2 Table Metabolomics, change in metabolite level after compound treatment): 0.002341; guanosine ([1]; metabolite guanosine, S2 Table Metabolomics, change in metabolite level after compound treatment): -0.12; hypoxanthine ([1]; metabolite hypoxanthine, S2 Table Metabolomics): -0.07458; indole ([1]; metabolite indole, S2 Table Metabolomics): -0.09687; inosine ([1]; metabolite inosine, S2 Table Metabolomics, change in metabolite level after compound treatment): -0.05497; 2_3-Diphosphoglyceric acid [1, 2]: -0.2512; 4-phosphopantothenate [1, 2]: -0.02128; 6-phospho-D-gluconate [1, 2]: -0.003238; FMN [1, 2]: -0.1662; IMP [1, 2]: 0.2187; Pyrophosphate [1, 2]: -0.2235; Sedoheptoluse bisphosphate [1, 2]: -0.07937; cyclic-AMP [1, 2]: -0.08199; glutathione disulfide [1, 2]: 0.08045; lactate [1, 2]: -0.3675; myo-inositol [1, 2]: -0.05445; nicotinate ([1]; metabolite nicotinate, S2 Table Metabolomics): -0.03534; ornithine ([1]; metabolite ornithine, S2 Table Metabolomics): 0.2934; phosphoenolpyruvate ([1]; metabolite phosphoenolpyruvate, S2 Table Metabolomics): -0.1195; pyruvate ([1]; metabolite pyruvate, S2 Table Metabolomics, change in metabolite level after compound treatment): -0.02123; ribose-phosphate ([1]; metabolite ribose-phosphate, S2 Table Metabolomics): -0.1454; sarcosine/alanine ([1]; metabolite sarcosine/alanine, S2 Table Metabolomics, change in metabolite level after compound treatment): 0.007595; sn-glycerol-3-phosphate ([1]; metabolite sn-glycerol-3-phosphate, S2 Table Metabolomics): -0.1485; succinate/methylmalonic acid ([1]; metabolite succinate/methylmalonic acid, S2 Table Metabolomics, change in metabolite level after compound treatment): 0.2071; uridine ([1]; metabolite uridine, S2 Table Metabolomics, change in metabolite level after compound treatment): 0.04529; xanthosine ([1]; metabolite xanthosine, S2 Table Metabolomics, change in metabolite level after compound treatment): -0.08771; EC50 (P. falciparum): 140 nM
